Columns and labels:
RAW264.7 [1] = experiment: Anti-inflammatory activity in mouse RAW264.7 cells assessed as inhibition of LPS-induced NO production; assay type: functional, cell-based
RAW264.7 [2] = experiment: Anti-inflammatory activity in mouse RAW264.7 cells assessed as inhibition of HMGB1-induced NO production; assay type: functional, cell-based
[3] = Cytotoxicity against mouse RAW264.7 cells assessed as cell viability at 50 uM; assay type: toxicity, cell-based; conditions: read-out: Activity

Row | SMILES | IC50 (RAW264.7 [1]) | IC50 (RAW264.7 [2]) | viability at 50 µM [3]
1 | C[C@H]1[C@H](C)[C@@H](O)C[C@]2(CO)CC[C@]3(C)C(=CC[C@@H]4[C@@]5(C)CC[C@H](O)C(C)(C)[C@@H]5C[C@H](O)[C@]43C)[C@H]12 | 2.22 µM | > 100 µM | 94.2%
2 | C[C@H]1[C@H](C)CC[C@]2(CO)CC[C@]3(C)C(=CC[C@@H]4[C@@]5(C)CC[C@H](O)C(C)(C)[C@@H]5CC[C@]43C)[C@H]12 [UVAOL] | > 100 µM | > 100 µM | 103%
3 | C[C@H]1[C@H](C(=O)O)[C@@H](O)C[C@]2(CO)CC[C@]3(C)C(=CC[C@@H]4[C@@]5(C)CC[C@H](O)[C@@](C)(CO)[C@@H]5CC[C@]43C)[C@H]12 | > 100 µM | > 100 µM | 124%
4 | C[C@H]1[C@H](C(=O)O)[C@@H](O)C[C@]2(CO)CC[C@]3(C)C(=CC[C@@H]4[C@@]5(C)CC[C@H](O)[C@](C)(CO)[C@@H]5CC[C@]43C)[C@H]12 | 0.55 µM | 91.6 µM | 112%
5 | CC1(C)[C@@H](OC(=O)CCC(=O)O)CC[C@]2(C)[C@H]3C(=O)C=C4[C@@H]5C[C@@](C)(C(=O)O)CC[C@]5(C)CC[C@@]4(C)[C@]3(C)CC[C@@H]12 [CARBENOXOLONE] | 6.64 µM | 7.62 µM | 88.5%
6 | C[C@@H]1[C@H]2C3=CC[C@@H]4[C@@]5(C)CC[C@H](O)[C@@](C)(CO)[C@@H]5CC[C@@]4(C)[C@]3(C)CC[C@@]2(CO)[C@@H](O)C[C@H]1C(=O)O | 29.9 µM | 60.4 µM | 118%
7 | C[C@@H]1[C@H]2C3=CC[C@@H]4[C@@]5(C)CC[C@H](O)[C@](C)(CO)[C@@H]5CC[C@@]4(C)[C@]3(C)CC[C@@]2(CO)[C@@H](O)C[C@H]1C(=O)O | > 100 µM | 100 µM | 117%
8 | C[C@H]1[C@H](C)[C@@H](O)C[C@@]23CC[C@@]4(C)[C@@]5(C)[C@H](C=C[C@]4(OC2)[C@H]13)[C@@]1(C)CC[C@H](O)C(C)(C)[C@@H]1C[C@@H]5O | 4.8 µM | 47.2 µM | 94.2%
